In this test the test system is Aedes aegypti. Kind of test: Warm Body assay, mosquito landings on treated warm body. Format: in vivo. Particulars: for pest or weed control at 1 % / mosquito landing within the two minutes of experiments: highest tested concentration, 1% (Table 3); for pest or weed control at 1 % / pest or weed control at 0.04 %: read-out: repellence; for pest or weed control at 0.04 %: intermediate concentration of 0.04% (Table 3); for pest or weed control at 0.0016 %: lowest concentration of 0.0016% (Table 3), read-out: reduce the number of mosquito landings. The procedure:
The arthropod controlling effect according to the present invention is determined on mosquitoes using an adapted Warm Body assay as defined in Kröber T, Kessler S, Frei J, Bourquin M, Guerin PM. An in vitro assay for testing mosquito controlling compounds employing a warm body and carbon dioxide as a behavioral activator. J Am Mosq Control Assoc. 2010; 26: 381-386. Further information is provided in the accompanying examples
The controlling effect, repellence & spatial repellence, according to the present invention is determined by testing the Warm Body assay against the yellow fever mosquito, Aedes aegypti Rockefeller strain. […] Observations of controlling efficacy were made on host-seeking females of uniform age, 5 to 10 days old selected as mentioned in the publication mentioned hereinabove. Tested hungry females had access to 10% sugar solution but were not blood-fed. Further information is provided in the accompanying examples.
The published protocol has been adapted in not manually counting the landing mosquitoes but automatically using an automatic counting software, the switch from Anopheles gambiae to A. aegypti led to a decrease of mosquitoes' number placed in the tested cage due to the size difference (i.e. 30 mosquitoes instead of 50) and to an increase of lighting as A. aegypti is a diurnal mosquitoes (i.e. 150 lux instead of 4 lux). Further information is provided in the accompanying examples. […]
The controlling effect according to the present invention was assessed using an adapted Warm Body assay as defined in Kröber T, Kessler S, Frei J, Bourquin M, Guerin P M. 2010. J Am Mosq Control Assoc. 26: 381-386. In this in-vitro assay the number of mosquito landing on a warm body, simulating an attractive host treated with the tested stimuli, was measured in order to assess the repellence effect.
The published protocol has been adapted as the switch from Anopheles gambiae to Aedes aegypti led to a decrease of mosquitoes placed in the tested cage due to the size difference (i.e. 30 mosquitoes instead of 50) and to an increase of lighting since A. aegypti is a diurnal mosquitoes (i.e. 150 lux instead of 4 lux).
On the sandblasted glass Petri dish covering the warm body (28.3 cm^2), 100 μL of the compounds diluted at different concentrations in ethanol was applied. The number of mosquito landing on the warm body was counted for each stimulus and pure ethanol (solvent) as control.

The mark [1] stands for this setting: Aedes aegypti, 0.016 mg/mL (Table 3), read-out: Percentage of repellence of mosquitoes Aedes aegypti landing on the warm body.
Where [2] appears, read: Aedes aegypti, 0.4 mg/mL (Table 3), read-out: Percentage of repellence of mosquitoes Aedes aegypti landing on the warm body.
Setting [3] is: Aedes aegypti, 10 mg/mL (Table 3), read-out: Percentage of repellence of mosquitoes Aedes aegypti landing on the warm body.
[4] abbreviates: Aedes aegypti, 0.0032 mg/mL (Table 2), read-out: Percentage of repellence of mosquitoes Aedes aegypti landing on the warm body.
Setting [5] is: Aedes aegypti, 0.016 mg/mL (Table 2), read-out: Percentage of repellence of mosquitoes Aedes aegypti landing on the warm body.
The mark [6] stands for this setting: Aedes aegypti, 0.0357 mg/mL (Table 2), read-out: Percentage of repellence of mosquitoes Aedes aegypti landing on the warm body.
[7] abbreviates: Aedes aegypti, 0.08 mg/mL (Table 2), read-out: Percentage of repellence of mosquitoes Aedes aegypti landing on the warm body.
The mark [8] stands for this setting: Aedes aegypti, 0.178 mg/mL (Table 2), read-out: Percentage of repellence of mosquitoes Aedes aegypti landing on the warm body.
Setting [9] is: Aedes aegypti, 0.4 mg/mL (Table 2), read-out: Percentage of repellence of mosquitoes Aedes aegypti landing on the warm body.
Where [10] appears, read: Aedes aegypti, 0.89 mg/mL (Table 2), read-out: Percentage of repellence of mosquitoes Aedes aegypti landing on the warm body.
Where [11] appears, read: Aedes aegypti, 2 mg/mL (Table 2), read-out: Percentage of repellence of mosquitoes Aedes aegypti landing on the warm body.
Setting [12] is: Aedes aegypti, 10 mg/mL (Table 2), read-out: Percentage of repellence of mosquitoes Aedes aegypti landing on the warm body.

Like-named read-outs stand apart in the source and are kept apart here.

In the case of `CCOc1cc(C)ccc1O` [compound 1303, 2-ethoxy-4-methylphenol], the “mosquito landing within the two minutes of experiments” value is reported as “protect the attractive stimulus for any mosquito landing”. Under setting [1], the pest or weed control at 16 µg/mL came to 16%. The pest or weed control at 400 µg/mL under setting [2] worked out at 21%. Under setting [3], the pest or weed control at 10000 µg/mL turned out to be 100%. Further, the pest or weed control at 1 % (Aedes aegypti) was > 90%.
As for `CCOc1c(OC)cccc1OC` [compound 2276, 2-ethoxy-1,3-dimethoxybenzene], the pest or weed control at 16 µg/mL under setting [1] was determined as 0%. Further, the pest or weed control at 400 µg/mL under setting [2] came out at 0%. Also, the pest or weed control at 10000 µg/mL under setting [3] is 98%. In addition, the pest or weed control at 1 % (Aedes aegypti) was > 90%.
With `COc1ccc(O)c(OC)c1OC` [compound 1204, 2,3,4-trimethoxyphenol], the pest or weed control at 16 µg/mL under setting [1] came to 46%. Further, under setting [2], the pest or weed control at 400 µg/mL amounted to 83%. For the same compound, under setting [3], the pest or weed control at 10000 µg/mL was determined as 92%. For the same compound, under “Aedes aegypti”, the pest or weed control at 1 % was > 90% and the pest or weed control at 0.04 % was > 75%.
On to `COc1cc(C=CC=O)ccc1O` [compound 1527, 3-(4-hydroxy-3-methoxyphenyl)pro-2-enal], for which the “Percentage of repellence of mosquitoes Aedes aegypti landing on the warm body” value was determined as 69% (0.016 mg/mL (Table 3)), 76% (0.4 mg/mL (Table 3)) and 71% (10 mg/mL (Table 3)).
Turning to `CCCc1cc(OC)c(O)c(OC)c1` [compound 1502, 2,6-dimethoxy-4-propylphenol], for the setting “Aedes aegypti, 0.0032 mg/mL (Table 1), read-out: Percentage of repellence of mosquitoes Aedes aegypti landing on the warm body”, the pest or weed control at 3.2 µg/mL is 0%. Besides, the pest or weed control at 7.1 µg/mL (Aedes aegypti, 0.0071 mg/mL (Table 1), read-out: Percentage of repellence of mosquitoes Aedes aegypti landing on the warm body) is 0%. In addition, the pest or weed control at 16 µg/mL (Aedes aegypti, 0.016 mg/mL (Table 1), read-out: Percentage of repellence of mosquitoes Aedes aegypti landing on the warm body) came out at 32%. The pest or weed control at 35.7 µg/mL (Aedes aegypti, 0.0357 mg/mL (Table 1), read-out: Percentage of repellence of mosquitoes Aedes aegypti landing on the warm body) is 0%. In addition, the pest or weed control at 53 µg/mL (Aedes aegypti, 0.053 mg/mL (Table 1), read-out: Percentage of repellence of mosquitoes Aedes aegypti landing on the warm body) worked out at 61%. For the same compound, the pest or weed control at 80 µg/mL (Aedes aegypti, 0.08 mg/mL (Table 1), read-out: Percentage of repellence of mosquitoes Aedes aegypti landing on the warm body) is 0%. Also, where the note is “Aedes aegypti, 0.119 mg/mL (Table 1), read-out: Percentage of repellence of mosquitoes Aedes aegypti landing on the warm body”, the pest or weed control at 119 µg/mL was 14%. Besides, the pest or weed control at 178 µg/mL (Aedes aegypti, 0.178 mg/mL (Table 1), read-out: Percentage of repellence of mosquitoes Aedes aegypti landing on the warm body) is 94%. Further, for the setting “Aedes aegypti, 0.267 mg/mL (Table 1), read-out: Percentage of repellence of mosquitoes Aedes aegypti landing on the warm body”, the pest or weed control at 267 µg/mL amounted to 94%. The pest or weed control at 400 µg/mL (Aedes aegypti, 0.4 mg/mL (Table 1), read-out: Percentage of repellence of mosquitoes Aedes aegypti landing on the warm body) stood at 88%. The pest or weed control at 598 µg/mL (Aedes aegypti, 0.598 mg/mL (Table 1), read-out: Percentage of repellence of mosquitoes Aedes aegypti landing on the warm body) is 94%. In addition, where the note is “Aedes aegypti, 0.89 mg/mL (Table 1), read-out: Percentage of repellence of mosquitoes Aedes aegypti landing on the warm body”, the pest or weed control at 890 µg/mL amounted to 99%. Besides, the pest or weed control at 2000 µg/mL (Aedes aegypti, 2 mg/mL (Table 1), read-out: Percentage of repellence of mosquitoes Aedes aegypti landing on the warm body) worked out at 96%. The pest or weed control at 4470 µg/mL (Aedes aegypti, 4.47 mg/mL (Table 1), read-out: Percentage of repellence of mosquitoes Aedes aegypti landing on the warm body) amounted to 100%. The pest or weed control at 10000 µg/mL (Aedes aegypti, 10 mg/mL (Table 1), read-out: Percentage of repellence of mosquitoes Aedes aegypti landing on the warm body) came out at 96%.
Regarding `COc1cc(CC=O)ccc1O` [compound 1467, 2-(4-hydroxy-3-methoxyphenyl)acetaldehyde], under setting [1], the pest or weed control at 16 µg/mL is 29%. The pest or weed control at 400 µg/mL under setting [2] stood at 84%. The pest or weed control at 10000 µg/mL under setting [3] worked out at 79%. In addition, the pest or weed control at 0.04 % (Aedes aegypti) was > 75%.
Regarding `COc1cc(C=CC(=O)O)cc(OC)c1OC` [compound 1566, 3-(3,4,5-trimethoxyphenyl)prop-2-enoic acid], the pest or weed control at 3.2 µg/mL under setting [4] turned out to be 0%. Besides, under setting [5], the pest or weed control at 16 µg/mL is 20%. The pest or weed control at 35.7 µg/mL under setting [6] turned out to be 22%. For the same compound, under setting [7], the pest or weed control at 80 µg/mL worked out at 0%. For the same compound, the pest or weed control at 178 µg/mL under setting [8] is 30%. Besides, the pest or weed control at 400 µg/mL under setting [9] was 81%. Under setting [10], the pest or weed control at 890 µg/mL amounted to 69%. The pest or weed control at 2000 µg/mL under setting [11] is 57%. The pest or weed control at 10000 µg/mL under setting [12] stood at 96%.
`COc1cccc(OC)c1OC` [compound 1822, 1,2,3-trimethoxybenzene]: the “mosquito landing within the two minutes of experiments” value is reported as “protect the attractive stimulus for any mosquito landing”. Besides, the pest or weed control at 16 µg/mL under setting [1] was 54%. For the same compound, the pest or weed control at 400 µg/mL under setting [2] came to 39%. Also, the pest or weed control at 10000 µg/mL under setting [3] was determined as 100%. Moreover, for the setting “Aedes aegypti”, the pest or weed control at 1 % was > 90% and the pest or weed control at 0.0016 % is > 50%.
For the compound `CC=Cc1cc(OC)c(O)c(OC)c1` [compound 1127, 2,6-dimethoxy-4-prop-1-enylphenol], under setting [4], the pest or weed control at 3.2 µg/mL was 17%. Besides, under setting [5], the pest or weed control at 16 µg/mL worked out at 1%. Besides, the pest or weed control at 35.7 µg/mL under setting [6] is 0%. Moreover, the pest or weed control at 80 µg/mL under setting [7] is 0%. In addition, the pest or weed control at 178 µg/mL under setting [8] stood at 30%. For the same compound, under setting [9], the pest or weed control at 400 µg/mL came out at 42%. Moreover, the pest or weed control at 890 µg/mL under setting [10] worked out at 59%. Also, the pest or weed control at 2000 µg/mL under setting [11] was 100%. Under setting [12], the pest or weed control at 10000 µg/mL came out at 96%.
Consider `CC=Cc1cc(OC)c(OC)c(OC)c1` [compound 1126, 1,2,3-trimethoxy-5-prop-1-enylbenzene], for which, under setting [1], the pest or weed control at 16 µg/mL was found to be 31%. The pest or weed control at 400 µg/mL under setting [2] worked out at 71%. Besides, the pest or weed control at 10000 µg/mL under setting [3] came out at 90%. Further, the pest or weed control at 1 % (Aedes aegypti) is > 90%.
For `CCOc1cc(C=O)ccc1OC` [compound 2272, 3-ethoxy-4-methoxybenzaldehyde], the pest or weed control at 16 µg/mL under setting [1] is 0%. Moreover, under setting [2], the pest or weed control at 400 µg/mL amounted to 77%. Besides, the pest or weed control at 10000 µg/mL under setting [3] was 89%. Further, for the setting “Aedes aegypti”, the pest or weed control at 0.04 % was > 75%.
Turning to `CCc1cc(OC)c(O)c(OC)c1` [compound 2240, 4-ethyl-2,6-dimethoxyphenol], under setting [1], the pest or weed control at 16 µg/mL stood at 0%. Moreover, the pest or weed control at 400 µg/mL under setting [2] came out at 47%. Further, the pest or weed control at 10000 µg/mL under setting [3] was determined as 94%. The pest or weed control at 1 % (Aedes aegypti) is > 90%.
Take `COc1cc(C(C)OC)ccc1O` (centres unmarked) [compound 1480, 2-methoxy-4-(1-methoxyethyl)phenol]: the “mosquito landing within the two minutes of experiments” value was “protect the attractive stimulus for any mosquito landing”. Besides, the pest or weed control at 16 µg/mL under setting [1] was determined as 66%. Further, under setting [2], the pest or weed control at 400 µg/mL amounted to 61%. Further, the pest or weed control at 10000 µg/mL under setting [3] stood at 100%. In addition, under “Aedes aegypti”, the pest or weed control at 1 % is > 90% and the pest or weed control at 0.0016 % was > 50%.
`COC(=O)C(C)Cc1ccc(OC)c(OC)c1` (centres unmarked) [compound 1698, methyl 3-(3,4-dimethoxyphenyl)-2-methylpropanoate]: the “mosquito landing within the two minutes of experiments” value is given as “protect the attractive stimulus for any mosquito landing”. Moreover, under setting [1], the pest or weed control at 16 µg/mL is 45%. Besides, under setting [2], the pest or weed control at 400 µg/mL was found to be 88%. Also, the pest or weed control at 10000 µg/mL under setting [3] came out at 100%. Moreover, for the setting “Aedes aegypti”, the pest or weed control at 1 % was > 90% and the pest or weed control at 0.04 % is > 75%.
As to `COc1cc(C2CCCO2)ccc1O` (centres unmarked) [compound 1481, 2-methoxy-4-(oxolan-2-yl)phenol], the pest or weed control at 16 µg/mL under setting [1] turned out to be 21%. In addition, the pest or weed control at 400 µg/mL under setting [2] was found to be 89%. For the same compound, under setting [3], the pest or weed control at 10000 µg/mL came out at 97%. Under “Aedes aegypti”, the pest or weed control at 1 % was > 90% and the pest or weed control at 0.04 % is > 75%.

Source of the values: patent US20250113823A1, “Arthropod Control Compositions” (priority 2022, published 2025).
